Measured values as given in PubChem BioAssay AID1963963 (Molecular Pharmacology Branch, DTP, NCI, 2024).

Tested on: 958667-338-R-J2-PDC tumor spheroids viability
Assay: Anticancer human tumor 958667-338-R-J2-PDC patient-derived colon adenocarcinoma cell line growth inhibition [PI3K]
Details: spheroids with HUVEC and MSC; for IC50: curve of first compound; for viability, T/C: stronger effect = lower value
Summary of the method: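 Targeted small molecules plus PI3K inhibitors, half-log dose series from Cmax (default top 10 microM), were applied to heterotypic spheroids of cancer cells with HUVEC and MSCs. Viability indicated growth inhibition.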
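Further: spheroids exposed to compounds for seven days before readout.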

IC50 (second compound 0.00316 µM): > 100 nM
IC50 (second compound 0.01 µM): > 100 nM
IC50 (second compound 0.0316 µM): > 100 nM
IC50 (second compound 0.1 µM): > 100 nM
IC50 (second compound 0.316 µM): < 0.316 nM
IC50 (second compound 1 µM): < 0.316 nM
Structure (SMILES): Cn1ncnc1[C@H]1c2n[nH]c(=O)c3cc(F)cc(c23)N[C@@H]1c1ccc(F)cc1 + COc1c(OCCCN2CCOCC2)ccc2c3n(c(=NC(=O)c4cnc(N)nc4)nc12)CCN3
viability, T/C (second compound 0.00316 µM, first compound 0.000316 µM): 96.3%
viability, T/C (second compound 0.00316 µM, first compound 0.001 µM): 104%
viability, T/C (second compound 0.00316 µM, first compound 0.00316 µM): 93.6%
viability, T/C (second compound 0.00316 µM, first compound 0.01 µM): 102%
viability, T/C (second compound 0.00316 µM, first compound 0.0316 µM): 87.8%
viability, T/C (second compound 0.00316 µM, first compound 0.1 µM): 75.8%
viability, T/C (second compound 0.01 µM, first compound 0.000316 µM): 76.3%
viability, T/C (second compound 0.01 µM, first compound 0.001 µM): 72.5%
viability, T/C (second compound 0.01 µM, first compound 0.00316 µM): 94.2%
viability, T/C (second compound 0.01 µM, first compound 0.01 µM): 90.7%
viability, T/C (second compound 0.01 µM, first compound 0.0316 µM): 80.5%
viability, T/C (second compound 0.01 µM, first compound 0.1 µM): 87.3%
viability, T/C (second compound 0.0316 µM, first compound 0.000316 µM): 69.4%
viability, T/C (second compound 0.0316 µM, first compound 0.001 µM): 74.4%
viability, T/C (second compound 0.0316 µM, first compound 0.00316 µM): 98.4%
viability, T/C (second compound 0.0316 µM, first compound 0.01 µM): 79.2%
viability, T/C (second compound 0.0316 µM, first compound 0.0316 µM): 79.8%
viability, T/C (second compound 0.0316 µM, first compound 0.1 µM): 61.9%
viability, T/C (second compound 0.1 µM, first compound 0.000316 µM): 62%
viability, T/C (second compound 0.1 µM, first compound 0.001 µM): 61.7%
viability, T/C (second compound 0.1 µM, first compound 0.00316 µM): 59.6%
viability, T/C (second compound 0.1 µM, first compound 0.01 µM): 66.8%
viability, T/C (second compound 0.1 µM, first compound 0.0316 µM): 57.3%
viability, T/C (second compound 0.1 µM, first compound 0.1 µM): 56%
viability, T/C (second compound 0.316 µM, first compound 0.000316 µM): 37%
viability, T/C (second compound 0.316 µM, first compound 0.001 µM): 38%
viability, T/C (second compound 0.316 µM, first compound 0.00316 µM): 43.8%
viability, T/C (second compound 0.316 µM, first compound 0.01 µM): 46.1%
viability, T/C (second compound 0.316 µM, first compound 0.0316 µM): 34.9%
viability, T/C (second compound 0.316 µM, first compound 0.1 µM): 34.9%
viability, T/C (second compound 1 µM, first compound 0.000316 µM): 19.7%
viability, T/C (second compound 1 µM, first compound 0.001 µM): 15.6%
viability, T/C (second compound 1 µM, first compound 0.00316 µM): 21.7%
viability, T/C (second compound 1 µM, first compound 0.01 µM): 21.1%
viability, T/C (second compound 1 µM, first compound 0.0316 µM): 22.5%
viability, T/C (second compound 1 µM, first compound 0.1 µM): 14.9%
